# Measurements as given in patent US20120226031A1, “PALMARUMYCIN BASED INHIBITORS OF THIOREDOXIN AND METHODS OF USING SAME” (ARIZONA BOARD OF REGENTS, ACTING ON BEHALF OF THE …, priority 2005, published 2012).
# Where two headings read alike, the source gives them in different places.
# What was measured:
# [1] = molecular target: T1, human thioredoxin reductase (Homo sapiens, UniProt Q16881); experiment: Inhibition of purified human thioredoxin reductase (TrxR/TR); format: biochemical
# T1 construct: (placenta); from tissue; host or cells: human placenta
# T1 sequence (Q16881 151-649 limits assumed): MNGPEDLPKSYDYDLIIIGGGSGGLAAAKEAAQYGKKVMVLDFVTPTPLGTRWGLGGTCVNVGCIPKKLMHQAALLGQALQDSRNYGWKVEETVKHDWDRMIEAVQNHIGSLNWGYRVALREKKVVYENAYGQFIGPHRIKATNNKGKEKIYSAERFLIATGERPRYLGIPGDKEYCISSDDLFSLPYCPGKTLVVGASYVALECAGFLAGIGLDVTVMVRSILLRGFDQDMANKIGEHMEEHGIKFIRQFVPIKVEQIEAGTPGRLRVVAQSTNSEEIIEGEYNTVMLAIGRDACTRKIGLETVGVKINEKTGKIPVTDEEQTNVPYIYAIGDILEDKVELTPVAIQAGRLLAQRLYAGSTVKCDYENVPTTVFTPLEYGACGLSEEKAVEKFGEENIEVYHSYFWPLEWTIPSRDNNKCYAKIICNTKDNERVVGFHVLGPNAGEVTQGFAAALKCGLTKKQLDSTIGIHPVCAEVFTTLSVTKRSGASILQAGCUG
# [2] = molecular target: T2, cellular thioredoxin reductase (Homo sapiens, UniProt Q16881); experiment: Inhibition of cellular thioredoxin reductase in MCF-7 cells grown in 1 μM Se; format: cell-based
# T2 sequence (Q16881 1-649): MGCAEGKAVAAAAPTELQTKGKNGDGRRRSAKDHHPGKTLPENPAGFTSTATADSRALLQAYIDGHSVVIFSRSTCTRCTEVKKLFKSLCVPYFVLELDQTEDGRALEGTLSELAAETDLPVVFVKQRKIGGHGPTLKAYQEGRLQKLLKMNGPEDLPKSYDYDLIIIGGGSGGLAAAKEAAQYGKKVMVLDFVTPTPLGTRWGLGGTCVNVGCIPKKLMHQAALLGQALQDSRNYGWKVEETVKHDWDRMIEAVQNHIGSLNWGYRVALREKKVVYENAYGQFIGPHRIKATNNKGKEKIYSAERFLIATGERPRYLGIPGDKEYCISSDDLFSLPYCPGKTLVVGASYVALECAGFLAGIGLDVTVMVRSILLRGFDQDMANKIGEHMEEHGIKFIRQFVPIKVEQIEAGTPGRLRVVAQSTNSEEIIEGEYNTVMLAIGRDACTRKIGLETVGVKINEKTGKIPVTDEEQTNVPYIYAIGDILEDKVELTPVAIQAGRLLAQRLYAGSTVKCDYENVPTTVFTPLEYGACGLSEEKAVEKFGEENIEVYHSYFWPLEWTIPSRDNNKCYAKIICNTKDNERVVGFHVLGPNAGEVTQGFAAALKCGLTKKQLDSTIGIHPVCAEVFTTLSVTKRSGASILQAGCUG
# Method: (§1) FIG. 3. Inhibition of cellular thioredoxin reductase by PX-916. MCF-7 human breast cancer cells grown in medium containing 1 μM Se for 7 days were treated with PX-916 and total cellular thioredoxin reductase activity measured. A. Time course of the inhibition of the thioredoxin reductase on exposure to 1 μM PX-916. […] In both cases values are the mean of 3 separate determinations and bars are S.E. P≦0.04 or **p≦0.01. C. Inhibition of MCF-7 tumor thioredoxin reductase by PX-916. MCF-7 human breast cancer xenografts were grown in female scid mice implanted with 17-β-estradiol 60 day slow-release pellets until they were ˜300 mm^3. The mice were administered a single dose of PX-916 of 25 mg/kg i.v. and tumors harvested at various times. Thioredoxin reductase activity was measured in tumor homogenates. Values are the mean of 3 mice at each time point and bars are SE. **p<0.01 compared to pretreatment value.
# Cell growth inhibition of MCF-7 human breast cancer cells by palmarumycin, PX-916 and PX-960 occurred at similar concentration of 1 to 3 μM (Table 2). MCF-7 human breast cancer cells were grown in medium containing 1 μM selenium (Se) for 7 days which increased cellular thioredoxin reductase activity by about 5 fold as previously reported. […] Thus, inhibition of purified human TR, MCF-7 cellular TR and cell growth inhibition of MCF-7 cells by PX-916 occurred at about the same concentrations.
# [3] = test system: MCF-7 human tumor xenograft TR; experiment: Inhibition of tumor thioredoxin reductase in MCF-7 xenografts; format: in vivo, mouse; conditions: 25 mg/kg/d i.v. five daily doses, 24 hr after last dose
# Method: as §1
# FIG. 5. Inhibition of tumor HIF-1α, VEGF and thioredoxin reductase by repeated administration of PX-916. Female scid mice were implanted 1d previously with a 90-d 17β-estradiol slow release pellet were inoculated s.c. with 10^7 MCF-7 human breast cancer cells. When the tumors were 300 mm^3, vehicle or 25 mg/kg/d PX-916 was given i.v. for five doses. […]
# HIF-1α = experiment: Tumor HIF-1α immunohistochemistry in MCF-7 xenografts; format: in vivo, mouse; conditions: five daily doses of 25 mg/kg, 24 hours after last dose
# Method: FIG. 5. Inhibition of tumor HIF-1α, VEGF and thioredoxin reductase by repeated administration of PX-916. Female scid mice were implanted 1d previously with a 90-d 17β-estradiol slow release pellet were inoculated s.c. with 10^7 MCF-7 human breast cancer cells. When the tumors were 300 mm^3, vehicle or 25 mg/kg/d PX-916 was given i.v. for five doses. Twenty four hours later, the tumors were removed and stained by immunohistochemistry for HIF-1α and VEGF (A) or assayed for thioredoxin reductase activity (B). Columns mean of four mice, SE. P≦0.05.
# Levels of the HIF-1α transcription factor and its downstream target VEGF are increased by thioredoxin-1 expression. We examined the effect of PX-916 administration on tumor HIF-1α and VEGF levels (FIG. 5A). Twenty-four hours after the last dose of five daily doses of PX-916 of 25 mg/kg, there was a decrease in MCF-7 xenograft staining for both HIF-1α and VEGF. At the same time, levels of tumor thioredoxin reductase activity were decreased by 75% (FIG. 5B).
structure (smiles),measurement,setting,value
"NCC(=O)Oc1ccc2c3c(cccc13)OC1(C=CC(=O)c3c(O)cccc31)O2 (stereo not shown) [PX-916, O-glycyl naphthoquinone spiroketal]",IC50,"[1]; Table 1, read-out: TrxR inhibitory activity IC50",280 nM
same,IC50,"[1]; Table 2, read-out: Inhibition of human thioredoxin reductase IC50",280 nM
same,IC50,"[1]; Table 3, read-out: Inhibition IC50, thioredoxin reductase (placenta)",280 nM
same,mode of inhibition of thioredoxin reductase-1,[1]; in words,"NADPH and time dependent, apparently, irreversible inhibitor"
same,IC50,[1]; read-out: IC50 purified TrxR,280 nM
same,IC50,[1]; read-out: IC50 purified human TR,280 nM
same,time of maximum inhibition of cellular TR,[2]; MCF-7 cells exposed to 1 μM,24 h
same,concentration of maximum inhibition of cellular TR,"[2]; MCF-7 cells, 17 hours exposure",0.5 µM
same,decrease of tumor thioredoxin reductase activity,[3],75%
same,MCF-7 xenograft staining for HIF-1α,HIF-1α,decrease
